Converted amounts (≈) assume the structure as drawn.
What was measured:
[1] = tested on: Staphylococcus epidermidis; assay: Antibacterial activity against Staphylococcus epidermidis ATCC 12228 assessed as bacterial growth inhibition incubated for 24 hrs by CLSI based broth microdilution method; assay type: functional
[2] = tested on: Staphylococcus aureus; assay: Antibacterial activity against methicillin-resistant Staphylococcus aureus ATCC 33591 assessed as bacterial growth inhibition incubated for 24 hrs by CLSI based broth microdilution method; assay type: functional
[3] = tested on: Acinetobacter baumannii; assay: Antibacterial activity against Acinetobacter baumannii ATCC 19606 assessed as bacterial growth inhibition incubated for 24 hrs by CLSI based broth microdilution method; assay type: functional
[4] = tested on: Escherichia coli; assay: Antibacterial activity against Escherichia coli ATCC 25922 assessed as bacterial growth inhibition incubated for 24 hrs by CLSI based broth microdilution method; assay type: functional
[5] = tested on: Staphylococcus aureus; assay: Antibacterial activity against Staphylococcus aureus ATCC 25923 assessed as bacterial growth inhibition incubated for 24 hrs by CLSI based broth microdilution method; assay type: functional
[6] = tested on: Staphylococcus aureus; assay: Antibacterial activity against Staphylococcus aureus ATCC 29213 assessed as bacterial growth inhibition incubated for 24 hrs by CLSI based broth microdilution method; assay type: functional
[7] = tested on: Acinetobacter baumannii; assay: Antibacterial activity against carbapenem-resistant Acinetobacter baumannii 882 clinical isolate assessed as bacterial growth inhibition incubated for 24 hrs by CLSI based broth microdilution method; assay type: functional
[8] = tested on: Staphylococcus aureus; assay: Antibacterial activity against methicillin-resistant Staphylococcus aureus 575 clinical isolate assessed as bacterial growth inhibition incubated for 24 hrs by CLSI based broth microdilution method; assay type: functional
[9] = tested on: Staphylococcus aureus; assay: Antibacterial activity against methicillin-resistant Staphylococcus aureus 171 clinical isolate assessed as bacterial growth inhibition incubated for 24 hrs by CLSI based broth microdilution method; assay type: functional
[10] = Cytotoxicity against human HepG2 cells incubated for 24 hrs by CCK8 assay; assay type: toxicity, cell-based
[11] = Cytotoxicity against HEK293 cells incubated for 24 hrs by CCK8 assay; assay type: toxicity, cell-based; settings: human
[12] = tested on: Enterococcus; assay: Antibacterial activity against vancomycin-resistant Enterococcus 80 clinical isolate assessed as bacterial growth inhibition incubated for 24 hrs by CLSI based broth microdilution method; assay type: functional
[13] = tested on: Klebsiella pneumoniae; assay: Antibacterial activity against multidrug-resistant Klebsiella pneumoniae 893 clinical isolate assessed as bacterial growth inhibition incubated for 24 hrs by CLSI based broth microdilution method; assay type: functional
[14] = tested on: Pseudomonas aeruginosa; assay: Antibacterial activity against multidrug-resistant Pseudomonas aeruginosa 126 clinical isolate assessed as bacterial growth inhibition incubated for 24 hrs by CLSI based broth microdilution method; assay type: functional
[15] = Cytotoxicity against human A549 cells incubated for 24 hrs by CCK8 assay; assay type: toxicity, cell-based

| SMILES | MIC [1] [µg/mL] | MIC [2] [µg/mL] | MIC [3] [µg/mL] | MIC [4] [µg/mL] | MIC [5] [µg/mL] | MIC [6] [µg/mL] | MIC [7] [µg/mL] | MIC [8] [µg/mL] | MIC [9] [µg/mL] | CC50 at 24 h [10] [µM] | CC50 at 24 h [11] [µM] | MIC [12] [µg/mL] | MIC [13] [µg/mL] | MIC [14] [µg/mL] | CC50 at 24 h [15] [µM] |
| --- | --- | --- | --- | --- | --- | --- | --- | --- | --- | --- | --- | --- | --- | --- | --- |
| C=C[C@]1(C)C[C@@H](OC(=O)COC(=O)/C=C/c2ccc(OC)c(OC)c2)[C@]2(C)[C@H](C)CC[C@]3(CCC(=O)[C@H]32)[C@@H](C)[C@@H]1O | 16 (≈ 28.1 µM) | 32 (≈ 56.3 µM) | > 128 | 64 (≈ 113 µM) | 4 (≈ 7.03 µM) | 8 (≈ 14.1 µM) | – | – | – | – | – | – | – | – | – |
| C=C[C@]1(C)C[C@@H](OC(=O)COC(=O)/C=C/c2ccco2)[C@]2(C)[C@H](C)CC[C@]3(CCC(=O)[C@H]32)[C@@H](C)[C@@H]1O | 8 (≈ 16 µM) | 32 (≈ 64.2 µM) | 64 (≈ 128 µM) | 64 (≈ 128 µM) | 64 (≈ 128 µM) | 8 (≈ 16 µM) | – | – | – | – | – | – | – | – | – |
| C=C[C@]1(C)C[C@@H](OC(=O)COC(=O)/C=C/c2ccc(F)c(Cl)c2)[C@]2(C)[C@H](C)CC[C@]3(CCC(=O)[C@H]32)[C@@H](C)[C@@H]1O | 32 (≈ 57 µM) | 64 (≈ 114 µM) | > 128 | 64 (≈ 114 µM) | 16 (≈ 28.5 µM) | 32 (≈ 57 µM) | – | – | – | – | – | – | – | – | – |
| C=C[C@]1(C)C[C@@H](OC(=O)COC(=O)/C(C#N)=C/c2ccccc2)[C@]2(C)[C@H](C)CC[C@]3(CCC(=O)[C@H]32)[C@@H](C)[C@@H]1O | 8 (≈ 15 µM) | 32 (≈ 60 µM) | 4 (≈ 7.5 µM) | 8 (≈ 15 µM) | 4 (≈ 7.5 µM) | 8 (≈ 15 µM) | 8 (≈ 15 µM) | > 128 | 64 (≈ 120 µM) | > 200 | > 200 | 8 (≈ 15 µM) | 32 (≈ 60 µM) | 64 (≈ 120 µM) | > 200 |
| C=C[C@]1(C)C[C@@H](OC(=O)COC(=O)/C=C/c2ccc(-c3ccccc3)cc2)[C@]2(C)[C@H](C)CC[C@]3(CCC(=O)[C@H]32)[C@@H](C)[C@@H]1O | 32 (≈ 54.7 µM) | 64 (≈ 109 µM) | > 128 | > 128 | 64 (≈ 109 µM) | 32 (≈ 54.7 µM) | – | – | – | – | – | – | – | – | – |
| C=C[C@]1(C)C[C@@H](OC(=O)COC(=O)/C=C/c2cccnc2)[C@]2(C)[C@H](C)CC[C@]3(CCC(=O)[C@H]32)[C@@H](C)[C@@H]1O | 2 (≈ 3.92 µM) | 16 (≈ 31.4 µM) | 32 (≈ 62.8 µM) | 16 (≈ 31.4 µM) | 2 (≈ 3.92 µM) | 8 (≈ 15.7 µM) | > 128 | 64 (≈ 126 µM) | 32 (≈ 62.8 µM) | 80.6 | 28.6 | 32 (≈ 62.8 µM) | 64 (≈ 126 µM) | 16 (≈ 31.4 µM) | 63.4 |
| C=C[C@]1(C)C[C@@H](OC(=O)COC(=O)/C=C/c2cccc(Cl)c2)[C@]2(C)[C@H](C)CC[C@]3(CCC(=O)[C@H]32)[C@@H](C)[C@@H]1O | 8 (≈ 14.7 µM) | 32 (≈ 58.9 µM) | 128 (≈ 236 µM) | 64 (≈ 118 µM) | 16 (≈ 29.5 µM) | 32 (≈ 58.9 µM) | – | – | – | – | – | – | – | – | – |
| C=C[C@]1(C)C[C@@H](OC(=O)COC(=O)/C=C/c2cccs2)[C@]2(C)[C@H](C)CC[C@]3(CCC(=O)[C@H]32)[C@@H](C)[C@@H]1O | 16 (≈ 31.1 µM) | 64 (≈ 124 µM) | 64 (≈ 124 µM) | 32 (≈ 62.2 µM) | 32 (≈ 62.2 µM) | 16 (≈ 31.1 µM) | – | – | – | – | – | – | – | – | – |
| C=C[C@]1(C)C[C@@H](OC(=O)COC(=O)/C=C/c2ccc(OC)cc2)[C@]2(C)[C@H](C)CC[C@]3(CCC(=O)[C@H]32)[C@@H](C)[C@@H]1O | 2 (≈ 3.71 µM) | 16 (≈ 29.7 µM) | > 128 | 32 (≈ 59.4 µM) | 4 (≈ 7.43 µM) | 8 (≈ 14.9 µM) | – | – | – | – | – | – | – | – | – |
| C=C[C@]1(C)C[C@@H](OC(=O)COC(=O)/C=C/c2ccc(Cn3ccnc3)cc2)[C@]2(C)[C@H](C)CC[C@]3(CCC(=O)[C@H]32)[C@@H](C)[C@@H]1O | 16 (≈ 27.2 µM) | 32 (≈ 54.4 µM) | 128 (≈ 217 µM) | 64 (≈ 109 µM) | 8 (≈ 13.6 µM) | 16 (≈ 27.2 µM) | – | – | – | – | – | – | – | – | – |
| C=C[C@]1(C)C[C@@H](OC(=O)COC(=O)/C=C/c2ccc(C(F)(F)F)cc2F)[C@]2(C)[C@H](C)CC[C@]3(CCC(=O)[C@H]32)[C@@H](C)[C@@H]1O | 16 (≈ 26.9 µM) | 64 (≈ 108 µM) | > 128 | 128 (≈ 215 µM) | 8 (≈ 13.5 µM) | 16 (≈ 26.9 µM) | – | – | – | – | – | – | – | – | – |
| C=C[C@]1(C)C[C@@H](OC(=O)COC(=O)/C=C/c2cccc(F)c2)[C@]2(C)[C@H](C)CC[C@]3(CCC(=O)[C@H]32)[C@@H](C)[C@@H]1O | 32 (≈ 60.8 µM) | 64 (≈ 122 µM) | > 128 | > 128 | 16 (≈ 30.4 µM) | 32 (≈ 60.8 µM) | – | – | – | – | – | – | – | – | – |

From ChEMBL document CHEMBL5625206, “Design, synthesis, and evaluation of novel pleuromutilin aryl acrylate derivatives as promising broad-spectrum antibiotics especially for combatting multi-drug resistant gram-negative bacteria” (Eur J Med Chem, 2023)
